The target in assay [1] is Serine/threonine-protein kinase B-raf (Homo sapiens) (UniProt P15056). The experiment in a line: Inhibition of BRAF labeling at conserved Lys2 (DLKSNNIFLHEDLTVK) in human PBMC at 1 uM.
Assay [2] addresses T1, Tyrosine-protein kinase JAK3 (Homo sapiens) (UniProt P52333).
T1 sequence (whole entry): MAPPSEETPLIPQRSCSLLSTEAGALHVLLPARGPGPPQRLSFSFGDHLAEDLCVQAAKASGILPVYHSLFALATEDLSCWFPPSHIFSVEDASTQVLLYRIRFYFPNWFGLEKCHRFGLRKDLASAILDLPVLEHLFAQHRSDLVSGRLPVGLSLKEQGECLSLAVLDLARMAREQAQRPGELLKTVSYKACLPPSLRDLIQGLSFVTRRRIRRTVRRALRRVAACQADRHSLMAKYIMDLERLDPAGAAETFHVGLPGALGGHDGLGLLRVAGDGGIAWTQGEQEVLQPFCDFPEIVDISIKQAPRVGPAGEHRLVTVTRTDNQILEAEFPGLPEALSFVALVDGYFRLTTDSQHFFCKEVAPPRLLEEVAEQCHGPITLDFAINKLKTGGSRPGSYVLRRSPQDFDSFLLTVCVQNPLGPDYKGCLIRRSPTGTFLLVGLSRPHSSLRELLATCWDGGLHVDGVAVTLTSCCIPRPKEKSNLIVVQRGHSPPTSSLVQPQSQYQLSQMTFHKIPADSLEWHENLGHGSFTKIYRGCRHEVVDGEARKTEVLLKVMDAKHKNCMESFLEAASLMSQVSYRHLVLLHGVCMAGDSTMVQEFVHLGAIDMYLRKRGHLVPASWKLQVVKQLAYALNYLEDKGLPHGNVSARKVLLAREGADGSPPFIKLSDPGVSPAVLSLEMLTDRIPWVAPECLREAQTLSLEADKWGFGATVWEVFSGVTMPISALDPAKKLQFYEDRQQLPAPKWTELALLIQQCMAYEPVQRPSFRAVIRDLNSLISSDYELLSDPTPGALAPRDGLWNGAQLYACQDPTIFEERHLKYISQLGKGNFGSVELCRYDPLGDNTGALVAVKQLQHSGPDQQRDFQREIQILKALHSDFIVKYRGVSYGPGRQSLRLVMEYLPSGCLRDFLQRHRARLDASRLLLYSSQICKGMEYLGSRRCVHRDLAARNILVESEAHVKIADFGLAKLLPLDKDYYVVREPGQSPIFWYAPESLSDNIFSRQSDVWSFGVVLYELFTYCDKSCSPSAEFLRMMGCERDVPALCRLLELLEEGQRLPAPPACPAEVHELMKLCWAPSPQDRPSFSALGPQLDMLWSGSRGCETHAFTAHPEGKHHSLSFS
Description: Inhibition of JAK3 domain2 conserved Lys1 (YDPLGDNTGALVAVKQLQHSGPDQQR) in human PBMC at 1 uM.

Assay [3] has as its target Tyrosine-protein kinase Fer (Homo sapiens) (UniProt P16591). The experiment in a line: Inhibition of FER conserved Lys2 (TSVAVKTCKEDLPQELK) in human PBMC at 0.1 uM.
The target of assay [4] is Leucine-rich repeat serine/threonine-protein kinase 2 (Homo sapiens, UniProt Q5S007). The experiment in a line: Inhibition of LRRK2 conserved Lys2 (DLKPHNVLLFTLYPNAAIIAK) in human PBMC at 1 uM.
The target of assay [5] is Cyclin-dependent kinase 2 (Homo sapiens) (UniProt P24941). The experiment in a line: Inhibition of CDK2 labeling at conserved Lys1 (LTGEVVALKK) in human PBMC at 1 uM.
Assay [6] deals with Mitogen-activated protein kinase kinase kinase 1 (Homo sapiens) (UniProt Q13233). The experiment in a line: Inhibition of MAP3K1 conserved Lys2 (DVKGANLLIDSTGQR) in human PBMC at 1 uM.
Assay [7] has as its target Serine/threonine-protein kinase LATS2 (Homo sapiens) (UniProt Q9NRM7). Description: Inhibition of LATS2 conserved Lys2 (DIKPDNILIDLDGHIK) in human PBMC at 0.1 uM.
Assay [8] has as its target Tyrosine-protein kinase CSK (Homo sapiens) (UniProt P41240). The experiment in a line: Inhibition of CSK labeling at conserved Lys2 (VSDFGLTKEASSTQDTGKLPVK) in human PBMC at 0.1 uM.
Assay [9] addresses Calcium/calmodulin-dependent protein kinase type II subunit alpha (Homo sapiens) (UniProt Q9UQM7). The experiment in a line: Inhibition of CaMK2a labeling at conserved Lys2 (DLKPENLLLASK) in human PBMC at 0.1 uM.
The target in assay [10] is Serine/threonine-protein kinase PLK1 (Homo sapiens) (UniProt P53350). Description: Inhibition of PLK1 conserved Lys1 (CFEISDADTKEVFAGKIVPK) in human PBMC at 1 uM.
Assay [11] shares this target. Description: Inhibition of PLK1 conserved Lys1 (CFEISDADTKEVFAGKIVPK) in human PBMC at 0.1 uM.
In assay [12] the target is Serine/threonine-protein kinase Nek4 (Homo sapiens) (UniProt P51957). Description: Inhibition of NEK4 conserved Lys2 (DLKTQNVFLTR) in human PBMC at 1 uM.
For assay [13], the target named is Dual specificity mitogen-activated protein kinase kinase 7 (Homo sapiens) (UniProt O14733). Description: Inhibition of MAP2K7 conserved Lys2 (DVKPSNILLDER) in human PBMC at 0.1 uM.
The target of assay [14] is Serine/threonine-protein kinase 24 (Homo sapiens) (UniProt Q9Y6E0). The experiment in a line: Inhibition of MST3 conserved Lys2 (DIKAANVLLSEHGEVK) in human PBMC at 1 uM.

Here are results for 1 compound from ChEMBL document CHEMBL4043168, “The design and SAR of a novel series of 2-aminopyridine based LRRK2 inhibitors” (Bioorg Med Chem Lett, 2017).

Chain of Serine/threonine-protein kinase PLK1 (Homo sapiens) (P53350 whole entry): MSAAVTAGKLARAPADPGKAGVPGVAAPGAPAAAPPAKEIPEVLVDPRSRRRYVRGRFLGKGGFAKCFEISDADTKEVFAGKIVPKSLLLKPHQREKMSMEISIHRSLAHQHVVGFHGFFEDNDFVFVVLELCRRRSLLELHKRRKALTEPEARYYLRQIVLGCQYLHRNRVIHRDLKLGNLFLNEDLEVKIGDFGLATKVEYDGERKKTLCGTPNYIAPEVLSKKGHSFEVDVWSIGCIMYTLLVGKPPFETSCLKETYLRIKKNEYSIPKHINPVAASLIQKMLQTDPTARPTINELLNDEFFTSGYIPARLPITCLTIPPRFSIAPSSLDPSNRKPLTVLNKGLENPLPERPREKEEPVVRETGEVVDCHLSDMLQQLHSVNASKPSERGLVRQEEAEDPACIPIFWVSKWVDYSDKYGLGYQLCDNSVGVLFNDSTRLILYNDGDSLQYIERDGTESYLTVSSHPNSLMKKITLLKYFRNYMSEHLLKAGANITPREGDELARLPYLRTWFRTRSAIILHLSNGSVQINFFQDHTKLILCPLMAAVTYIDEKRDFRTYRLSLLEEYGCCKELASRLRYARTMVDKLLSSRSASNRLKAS
Chain of Calcium/calmodulin-dependent protein kinase type II subunit alpha (Homo sapiens) (Q9UQM7 whole entry): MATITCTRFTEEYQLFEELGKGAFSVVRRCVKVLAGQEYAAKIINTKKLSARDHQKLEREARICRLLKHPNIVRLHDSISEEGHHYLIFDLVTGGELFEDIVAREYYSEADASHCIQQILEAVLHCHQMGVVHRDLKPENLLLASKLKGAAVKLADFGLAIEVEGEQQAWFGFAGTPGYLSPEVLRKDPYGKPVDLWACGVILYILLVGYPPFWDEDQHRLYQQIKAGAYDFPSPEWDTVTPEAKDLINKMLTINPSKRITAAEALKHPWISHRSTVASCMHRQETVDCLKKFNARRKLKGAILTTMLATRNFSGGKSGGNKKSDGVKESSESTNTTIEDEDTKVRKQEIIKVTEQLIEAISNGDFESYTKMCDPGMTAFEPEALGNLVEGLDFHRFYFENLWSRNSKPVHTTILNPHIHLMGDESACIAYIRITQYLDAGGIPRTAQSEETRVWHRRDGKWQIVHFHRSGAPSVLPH
Chain of Leucine-rich repeat serine/threonine-protein kinase 2 (Q5S007 whole entry): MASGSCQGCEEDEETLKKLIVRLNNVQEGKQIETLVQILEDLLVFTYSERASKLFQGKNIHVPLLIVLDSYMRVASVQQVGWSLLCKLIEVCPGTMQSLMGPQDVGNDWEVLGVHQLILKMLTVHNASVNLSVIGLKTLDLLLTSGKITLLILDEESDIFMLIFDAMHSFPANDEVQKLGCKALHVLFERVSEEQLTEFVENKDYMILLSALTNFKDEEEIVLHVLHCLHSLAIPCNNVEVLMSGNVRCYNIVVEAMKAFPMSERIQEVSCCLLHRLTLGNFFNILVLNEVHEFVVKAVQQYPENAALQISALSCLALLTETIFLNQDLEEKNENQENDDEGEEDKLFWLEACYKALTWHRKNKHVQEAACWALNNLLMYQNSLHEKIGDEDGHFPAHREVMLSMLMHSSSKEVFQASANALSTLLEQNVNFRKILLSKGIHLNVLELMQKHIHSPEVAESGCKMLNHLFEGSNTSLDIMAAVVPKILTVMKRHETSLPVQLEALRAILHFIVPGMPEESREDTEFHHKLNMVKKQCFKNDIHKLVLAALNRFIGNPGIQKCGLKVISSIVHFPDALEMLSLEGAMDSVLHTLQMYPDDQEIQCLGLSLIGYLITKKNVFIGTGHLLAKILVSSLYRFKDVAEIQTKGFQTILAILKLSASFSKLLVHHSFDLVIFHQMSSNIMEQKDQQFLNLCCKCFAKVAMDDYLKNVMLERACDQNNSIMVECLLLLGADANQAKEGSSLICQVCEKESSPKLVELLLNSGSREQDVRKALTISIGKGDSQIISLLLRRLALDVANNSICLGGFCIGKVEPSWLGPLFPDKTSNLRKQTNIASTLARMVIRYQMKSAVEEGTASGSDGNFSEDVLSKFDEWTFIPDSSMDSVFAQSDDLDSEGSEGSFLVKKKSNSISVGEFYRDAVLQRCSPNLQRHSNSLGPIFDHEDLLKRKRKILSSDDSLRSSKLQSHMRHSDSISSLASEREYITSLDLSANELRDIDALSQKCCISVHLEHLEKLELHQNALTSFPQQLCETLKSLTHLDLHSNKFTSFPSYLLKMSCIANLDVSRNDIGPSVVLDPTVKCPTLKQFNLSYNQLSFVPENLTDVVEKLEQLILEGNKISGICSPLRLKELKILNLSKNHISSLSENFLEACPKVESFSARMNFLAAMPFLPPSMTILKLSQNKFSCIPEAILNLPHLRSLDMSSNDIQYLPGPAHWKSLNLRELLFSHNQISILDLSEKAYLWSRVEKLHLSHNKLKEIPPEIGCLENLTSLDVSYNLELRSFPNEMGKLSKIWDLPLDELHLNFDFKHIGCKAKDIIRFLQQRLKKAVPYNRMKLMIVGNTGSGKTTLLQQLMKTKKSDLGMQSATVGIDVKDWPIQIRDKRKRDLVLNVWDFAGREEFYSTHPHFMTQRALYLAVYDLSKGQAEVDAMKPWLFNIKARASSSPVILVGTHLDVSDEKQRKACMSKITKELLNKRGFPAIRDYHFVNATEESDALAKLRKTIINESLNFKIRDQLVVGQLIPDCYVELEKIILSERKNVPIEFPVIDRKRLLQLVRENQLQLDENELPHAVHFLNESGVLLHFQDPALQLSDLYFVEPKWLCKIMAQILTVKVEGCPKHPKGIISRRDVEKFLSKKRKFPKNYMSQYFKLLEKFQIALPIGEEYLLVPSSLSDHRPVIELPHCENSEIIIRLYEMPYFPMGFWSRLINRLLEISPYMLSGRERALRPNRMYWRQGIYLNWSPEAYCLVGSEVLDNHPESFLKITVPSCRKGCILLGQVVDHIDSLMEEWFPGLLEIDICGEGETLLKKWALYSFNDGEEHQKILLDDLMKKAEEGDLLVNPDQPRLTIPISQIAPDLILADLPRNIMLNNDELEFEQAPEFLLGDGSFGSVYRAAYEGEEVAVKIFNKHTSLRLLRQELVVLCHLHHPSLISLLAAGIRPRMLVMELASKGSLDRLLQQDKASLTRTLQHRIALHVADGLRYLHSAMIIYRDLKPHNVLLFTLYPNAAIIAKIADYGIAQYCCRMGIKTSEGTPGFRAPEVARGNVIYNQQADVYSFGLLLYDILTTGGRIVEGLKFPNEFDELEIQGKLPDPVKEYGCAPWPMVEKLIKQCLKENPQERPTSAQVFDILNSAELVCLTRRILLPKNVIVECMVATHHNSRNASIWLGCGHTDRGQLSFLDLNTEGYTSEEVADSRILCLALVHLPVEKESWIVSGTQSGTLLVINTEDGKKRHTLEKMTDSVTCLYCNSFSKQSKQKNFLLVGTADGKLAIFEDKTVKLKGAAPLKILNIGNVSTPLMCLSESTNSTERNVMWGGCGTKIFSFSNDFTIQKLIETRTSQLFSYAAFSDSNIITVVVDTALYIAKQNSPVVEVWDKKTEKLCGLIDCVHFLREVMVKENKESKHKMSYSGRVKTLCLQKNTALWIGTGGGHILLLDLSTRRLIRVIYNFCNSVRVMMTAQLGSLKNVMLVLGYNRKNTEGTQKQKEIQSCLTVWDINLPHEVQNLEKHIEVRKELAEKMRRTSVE
Chain of Serine/threonine-protein kinase Nek4 (Homo sapiens) (P51957 whole entry, looked up): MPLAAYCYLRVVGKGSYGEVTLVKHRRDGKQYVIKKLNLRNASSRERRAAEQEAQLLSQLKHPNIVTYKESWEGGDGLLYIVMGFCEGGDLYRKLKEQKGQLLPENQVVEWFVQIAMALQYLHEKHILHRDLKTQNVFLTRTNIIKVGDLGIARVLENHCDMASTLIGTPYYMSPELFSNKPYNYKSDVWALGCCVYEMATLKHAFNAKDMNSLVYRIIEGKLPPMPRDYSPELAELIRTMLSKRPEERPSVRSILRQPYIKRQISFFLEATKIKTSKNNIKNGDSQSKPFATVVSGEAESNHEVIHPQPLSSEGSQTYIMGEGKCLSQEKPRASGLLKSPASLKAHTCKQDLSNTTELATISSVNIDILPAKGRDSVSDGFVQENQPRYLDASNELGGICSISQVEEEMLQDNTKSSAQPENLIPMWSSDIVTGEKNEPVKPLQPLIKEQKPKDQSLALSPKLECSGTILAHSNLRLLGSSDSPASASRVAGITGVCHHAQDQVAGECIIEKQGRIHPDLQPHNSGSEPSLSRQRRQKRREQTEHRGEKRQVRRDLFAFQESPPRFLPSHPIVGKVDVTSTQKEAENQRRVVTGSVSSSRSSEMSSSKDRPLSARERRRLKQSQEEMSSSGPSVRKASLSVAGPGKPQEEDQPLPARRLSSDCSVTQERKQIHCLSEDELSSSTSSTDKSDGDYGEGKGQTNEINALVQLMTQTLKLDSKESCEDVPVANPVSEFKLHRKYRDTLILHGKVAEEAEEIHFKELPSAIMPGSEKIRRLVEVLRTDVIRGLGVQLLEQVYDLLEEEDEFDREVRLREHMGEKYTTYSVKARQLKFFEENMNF
Chain of Dual specificity mitogen-activated protein kinase kinase 7 (Homo sapiens) (O14733 whole entry): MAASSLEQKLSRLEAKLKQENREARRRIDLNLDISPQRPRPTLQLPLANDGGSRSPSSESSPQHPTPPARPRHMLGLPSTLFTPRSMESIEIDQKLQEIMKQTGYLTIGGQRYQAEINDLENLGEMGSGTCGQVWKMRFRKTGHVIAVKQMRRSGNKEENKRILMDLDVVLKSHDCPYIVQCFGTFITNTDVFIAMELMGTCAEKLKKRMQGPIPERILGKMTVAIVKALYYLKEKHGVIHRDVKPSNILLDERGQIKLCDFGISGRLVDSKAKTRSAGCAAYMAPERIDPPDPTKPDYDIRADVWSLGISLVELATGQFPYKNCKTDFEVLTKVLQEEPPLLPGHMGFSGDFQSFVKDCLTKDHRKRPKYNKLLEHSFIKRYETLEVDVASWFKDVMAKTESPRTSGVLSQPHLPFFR

Consider `CC(C)n1cc(-c2cc(-c3ccc(CN4CCOCC4)cc3)cnc2N)nn1`, for which the inhibition was 11.4% in assay [1]; -0.9% in assay [2]; -1.2% in assay [3]; 48.5% in assay [4]; 11.3% in assay [5]; 83.3% in assay [6]. Further, the inhibition in assay [7] is 3%; in assay [8], -9.6%; in assay [9], -7.5%; in assay [10], 16%; in assay [11], 24.7%; in [12], -1.7%. The figures for the inhibition in [13] and in assay [14] were 31.6% and 7.2%, respectively.

A word on the inhibition: it is the relative decrease from the control value, in per cent.
